# Assay results taken from patent US8071763B2, “Methods for treatment of nocturia” (Daiichi Sankyo Company, Limited, priority 2002, dated 2011).
# Assays:
# nocturia = experiment: Single BPH patient taking a loxoprofen sodium tablet before sleeping; type: in vivo, human; details: one patient treated for BPH; 60-mg tablet before sleeping
# Procedure: Based on the experience, the inventor conducted a non-randomized trial treatment with loxoprofen, a short-acting nonsteroidal anti-inflammatory drug (NSAID) prodrug usually prescribed at a dosage of 60 mg t.i.d. for the management of pain, in patients bothered by nocturia. […] The invention was achieved on the basis of these findings.
# patients with nocturia = experiment: Continuation and termination of loxoprofen administration after the trial treatment; type: in vivo, human
# Procedure: After the initial study, loxoprofen was administered at the patients' discretion; 101 continued loxoprofen therapy for =320 (mean 61) days. After the evaluation, loxoprofen therapy was continued or not according to the patients' wishes (Table 5). Of 101 excellent and improved patients, 11 continued to take loxoprofen every night and 43 when necessary. The improvement of nocturia lasted for several months even after discontinuation of therapy in 11 (10%) who discontinued loxoprofen after 5 to 310 days' administration. In addition, in five patients in whom loxoprofen's effectiveness reduced after continuous administration, the effectiveness recovered with occasional administration following withdrawal for several weeks.
# [1] = discontinued after 5 to 310 days' administration
# [2] = patients with Excellent Response
# [3] = patients with Improved Response
structure (smiles),measurement,setting,value
"CC(C(=O)O)c1ccc(CC2CCCC2=O)cc1 (stereo not drawn) [loxoprofen, loxoprofen sodium]","Nocturia, voids/night",nocturia,decreased from a usual of four voids to one void/night
same,"Improvement of nocturia lasted for several months after discontinuation of therapy, % of patients",patients with nocturia; [1],10%
same,"Improvement of nocturia lasted for several months after discontinuation of therapy, no. of patients",patients with nocturia; [1],11
same,"Effectiveness reduced after continuous administration and recovered with occasional administration, no. of patients",patients with nocturia; following withdrawal for several weeks,five
same,"Discontinued therapy due to adverse events, no. of patients",patients with nocturia; [2],1
same,"Discontinued therapy: cured or stable improvement, no. of patients",patients with nocturia; [2],7
same,"Discontinued therapy due to adverse events, no. of patients",patients with nocturia; [3],9
same,"Discontinued therapy: cured or stable improvement, no. of patients",patients with nocturia; [3],4
same,"Discontinued therapy: reduced efficacy, no. of patients",patients with nocturia; [3],2
